Positions of bridges follow the written chain, without caps; N, C: chain ends. Non-standard residues stand in square brackets, D forms with d. Residues, ends and D or L forms follow the SMILES beside them.
Legend:
Sprague-Dawley rats [1] = assay: Morphine antagonism, tail flick test; format: in vivo, rat; details: Reversal of morphine analgesia, 100 μg peptide given I.P. 30 min before 5 mg/kg morphine; 55° C. water bath, 15 s cut-off; water vehicle control 48.9
Protocol: (§1) Central nervous system activity is determined in an assay which measures the ability of peptides to reverse or inhibit the in vivo analgesia induced in rats by morphine compared to the ability of the peptide to cause skin darkening in frogs in vivo. For a discussion of these assays see generally, Beckwith, B. E. and Sandman, C. A., Peptides, 3, 411-420 (1982) and Zimmerman, E. and Krivoy, W. A., Prog. Brain Res.; 39, 383-394 (1973), which are specifically incorporated by reference herein.
(§2) In Vivo Bioassays. Morphine antagonism was tested in Sprague-Dawley rats (250-300 g) by administering the compounds of the present invention and measuring the latency to rear paw lick and jumping.
(§3) Each rat received either a water vehicle or an α-MSH analog intraperitoneally. Thirty minutes later 5 mg/kg of morphine was administered to all animals and 30 minutes after the administration of the morphine, the percent analgesia was measured. Each animal was placed on a 55° C. hot plate. A sixty second cut-off was used and animals not responding within this time was considered analgesic. The results of these tests are summarized in Table I. Percent analgesia was calculated as follows: [formula] Antagonism to morphine analgesia was also measured using the tail flick test. The tails of the treated animals were placed in a 55° C. water bath and the latency of the animals to withdraw was measured in seconds. A fifteen second cut-off time was used.
Percent analgesia in the tail flick test was calculated as follows: [formula]

Sprague-Dawley rats [2] = assay: Morphine antagonism, hot plate test; format: in vivo, rat; details: Reversal of morphine analgesia, 100 μg peptide given I.P. 30 min before 5 mg/kg morphine; 55° C. hot plate, 60 s cut-off; water vehicle control 56.1
Protocol: as §1, §2, §3

frog Rana pipiens = assay: Frog skin bioassay (skin darkening, peripheral activity); format: in vivo; details: injected into dorsal lymph sac of Rana pipiens, 30 minute observation
Protocol: as §1
The peripheral activity of the compounds was tested using the frog skin bioassay system. See O'Donohue, T. L. and Dorsa, D. M., Peptides, 3, 353-395 (1982) and Hadley, M.E. et. al., Science, 213, 1025-1027 (1981) which are herein specifically incorporated by reference. Peptides were injected into the dorsal lymph sac of the frog Rana pipiens in amounts up to 20 mg. […] The lowest dose of peptide that produced skin darkening within the 30 minute observation period was determined. For example, in Table I, only 0.1 ng/g of α-MSH was administered before skin darkening was observed. In contract, 30 μg/g of [drawing 23] was administered and no skin darkening was observed.

Compound	Percent Analgesia Tail Flick (Sprague-Dawley rats [1]) [%]	Percent Analgesia Hot Plate (Sprague-Dawley rats [2]) [%]	Minimum dose Producing Skin Darkening (frog Rana pipiens) [µg/g]
β-MSH [reference compound]	11.9	26.9	
N=C(N)NCCC[C@H]1NC(=O)[C@H](Cc2ccccc2)NC(=O)[C@H](Cc2c[nH]cn2)NC(=O)[C@H](CCC(=O)O)NC(=O)[C@@H](N)CSSC[C@@H](C(=O)O)NC(=O)[C@H](Cc2c[nH]c3ccccc23)NC1=O	6.7		> 20
NCCCC[C@H]1NC(=O)[C@H](Cc2ccccc2)NC(=O)[C@H](Cc2c[nH]cn2)NC(=O)[C@H](CCC(=O)O)NC(=O)[C@@H](N)CSSC[C@@H](C(=O)O)NC(=O)[C@H](Cc2c[nH]c3ccccc23)NC1=O (H-CEHF[dK]WC-OH; disulfide 1-7)	1.5		> 30
N=C(N)NCCC[C@H]1NC(=O)[C@H](Cc2ccccc2)NC(=O)[C@H](Cc2c[nH]cn2)NC(=O)[C@H](CCC(=O)O)NC(=O)[C@@H](N)CSSC[C@H](C(=O)O)NC(=O)[C@H](Cc2ccccc2)NC1=O (H-CEHF[dR]F[dC]-OH; disulfide 1-7)	34.3	42.6	> 1
NCCCC[C@H]1NC(=O)[C@H](Cc2ccccc2)NC(=O)[C@H](Cc2c[nH]cn2)NC(=O)[C@H](CCC(=O)O)NC(=O)[C@@H](N)CSSC[C@H](C(=O)O)NC(=O)[C@H](Cc2ccccc2)NC1=O (H-CEHF[dK]F[dC]-OH; disulfide 1-7)	10.5	15.0	1
NCCCC[C@H]1NC(=O)[C@H](Cc2ccccc2)NC(=O)[C@H](Cc2c[nH]cn2)NC(=O)[C@H](CCC(=O)O)NC(=O)[C@@H](N)CSSC[C@@H](C(=O)O)NC(=O)[C@H](Cc2ccccc2)NC1=O (H-CEHF[dK]FC-OH; disulfide 1-7)	14.9	15.5	> 1

— patent publication US4649191A, “Conformationally constrained alpha-melanotropin analogs with specific central nervous system activity” (Gibson-Stephens Neuropharmaceuticals, Inc., priority 1984, dated 1987)
